Experiments:
[1] = system: C. neoformans ATCC 90112; experiment: In vitro antifungal susceptibility assay adapted from NCCLS (MIC); type: cell-based, Cryptococcus neoformans; conditions: RPMI-1640
Experimental: (§1) Compounds of the invention also display antifungal activities. […] Using C. albicans ATCC® 90028, C. neoformans ATCC® 90112 and T. glabrata ATCC® 90030, the protocol is performed as follows:
(§2) Prepare 0.0128 g DAA in 10 mL dH2 O (or other if H2 O insoluble)=1280 μg/mL (stock solution). Dilute DAA stock solution 1:10 with RPMI-1640: 0.5 mL DAA stock solution+4.5 mL RPMI-1640=128 μg/mL (DAA working solution).
(§3) Inoculate rows A-H, columns 2-12 with 100 μl of RPMI-1640 using Eppendorf repeater pipette. Inoculate rows A-C columns 1 and 2 with 100 μl of 1st antibiotic (i.e. DAA-1) using electronic pipette. Inoculate rows E-G columns 1 and 2 with 100 μl of 2nd antibiotic (i.e. DAA-2) using electronic pipette. […] Plate is now ready for fungal inocula, which involves pipetting 100 μl of the inocula into all wells in rows A-C columns 1-12 and rows E-G columns 1-12. […]
(§4) Five colonies greater than 1 mm in diameter are suspended in a spectrophotometer cuvette containing 5 mL of sterile, 0.85% saline (colonies are obtained from 24 hrs. old Candida and Torulopsis cultures, while Cryptococcus colonies are chosen from 48 hrs. old cultures). Spectrophotometer is set to read % transmission at a wavelength of 530 nm, and is standardized using two cuvettes. […] Fungal inoculum is now prepared and ready to be introduced to microplates. […]

[2] = system: T. glabrata ATCC 90030; experiment: as above; type: cell-based, Torulopsis glabrata; conditions: RPMI-1640
Experimental: as §1, §2, §3, §4

[3] = system: B. cepacia; experiment: Broth microdilution (NCCLS guidelines), MIC; type: cell-based; conditions: Table A, 5 strains
Experimental: (§5) The dimer product of Example 15 was obtained in powder form. A stock solution of 1280 mg/L of the dimer in dimethylsulfoxide (DMSO) was prepared and stored at room temperature in a foil-wrapped screw-capped tube (10 ml). Subsequent dilutions were prepared using cation-adjusted Mueller-Hinton broth (50 mg/L Mg). […] It was resuspended upon mixing each time an aliquot was taken from the solution.
(§6) Approximately 100 varied bacterial isolates were initially collected for screening, along with 9 ATCC organisms. Forty additional strains of Staphylococcus species were subsequently screened. All isolates were identified according to generally accepted lab protocol.
(§7) Broth microdilution was performed according to NCCLS guidelines. Microdilution panels were prepared using doubling dilutions of the dimer in ~250 μl plastic, 96-well trays. Inoculum suspension equal to a 0.5 McFarland standard were further diluted and added to the microdilution trays to achieve a final inoculum of 5×10^5 CFU/ml (5×10^4 CFU/well). Colony counts were performed to confirm the final inoculum, as well as its purity. Each strain was also tested in a growth control well containing only MHB for viability.
(§8) Microdilution trays were incubated at 35° C. in ambient air or 5% CO2 as appropriate for 16-20 hours. After incubation, the minimal inhibitory concentration (MIC) was defined as the lowest concentration of the dimer with no evidence of growth. Since 10 or more strains of most organisms were tested; a range of MICs was determined for each organism, as well as the concentration of the dimer that inhibited 50% of the strains (MIC50) and the concentration of the dimer that inhibited 90% of the strains (MIC90).

[4] = system: Vancomycin resistant Enterococcus (VRE); experiment: Broth microdilution (NCCLS guidelines), MIC; type: cell-based; conditions: Table A
Experimental: as §5, §6, §7, §8

[5] = system: Vancomycin susceptible Enterococcus (VSE); experiment: Broth microdilution (NCCLS guidelines), MIC; type: cell-based; conditions: Table A
Experimental: as §5, §6, §7, §8

[6] = system: Strep pneumoniae; experiment: Broth microdilution (NCCLS guidelines), MIC; type: cell-based; conditions: Table A
Experimental: as §5, §6, §7, §8
(§9) **5% lysed horse blood in MHB (cation supplemented)

[7] = system: β strep grp A; experiment: Broth microdilution (NCCLS guidelines), MIC; type: cell-based; conditions: Table A
Experimental: as §5, §6, §7, §8, §9

[8] = system: P. aeruginosa; experiment: Broth microdilution (NCCLS guidelines), MIC; type: cell-based, Pseudomonas aeruginosa; conditions: Table A
Experimental: as §5, §6, §7, §8

[9] = system: ATCC EC 25922; experiment: Broth microdilution (NCCLS guidelines), MIC; type: cell-based, Escherichia coli; conditions: Table A
Experimental: as §5, §6, §7
Microdilution trays were incubated at 35° C. in ambient air or 5% CO2 as appropriate for 16-20 hours. […]

[10] = system: Staphylococcus species; experiment: Effect of age of the dimer solution on MIC (stability of the solution); type: physicochemical; conditions: stored at RT in foil wrapped tube
Description: The dimer solution was two weeks old at this time. When the additional Staph strains were then retested using a freshly made solution of the dimer, the MICs were lower (see Table E). The stability of the solution stored at RT in a foil wrapped tube could be a variable contributing to the discrepancy between MICs.

[11] = 10 strains, 5% lysed horse blood in MHB

10,10'-bis(3,6-dimethyl-5,10-dihydro-1,8-diazaanthracen-5-one) and 5,5'-bis(3,6-dimethyl-5,10-dihydro-1,8-diazaanthracen-10-one) [Example 15]
MIC [1]: 16 µg/mL
MIC [2]: 16 µg/mL
MIC50 [3]: > 64 µg/mL
MIC90 [3]: > 64 µg/mL
Range of MICs [3]: ≥ 64 mg/L
MIC50 ([4]; 12 strains): 64 µg/mL
MIC90 ([4]; 12 strains): > 64 µg/mL
Range of MICs ([4]; 12 strains): ≥ 64 mg/L
MIC ([4]; ATCC VRE 51299): > 64 µg/mL
MIC50 ([5]; 12 strains): > 64 µg/mL
MIC90 ([5]; 12 strains): > 64 µg/mL
MIC ([5]; ATCC VSE 29212): > 64 µg/mL
MIC50 [6, 11]: 8 µg/mL
MIC90 [6, 11]: 16 µg/mL
Range of MICs [6, 11]: 8 to 32 mg/L
MIC ([6]; ATCC STRPNE 49619, 5% lysed horse blood in MHB): 2.0 µg/mL
MIC50 [7, 11]: 32 µg/mL
MIC90 [7, 11]: 64 µg/mL
Range of MICs [7, 11]: 32 to 64 mg/L
MIC ([7]; ATCC STRA 19615, 5% lysed horse blood in MHB): 32 µg/mL
MIC50 ([8]; 10 strains): > 64 µg/mL
MIC90 ([8]; 10 strains): > 64 µg/mL
Range of MICs ([8]; 10 strains): ≥ 64 mg/L
MIC ([8]; ATCC PA 27853 (×2)): > 64 µg/mL
MIC [9]: > 64 µg/mL
MICs with two weeks old dimer solution vs. original screen [10]: MICs appeared to be significantly higher
